Laboratory results as given in patent publication US20140121407A1, “DEUTERATED PHENYLPROPIONIC ACID DERIVATIVE” (RESEARCH FOUNDATION ITSUU LABORATORY, priority 2011, published 2014).
Read-outs that look alike come from different tables or passages of the source.

Experiment: In vivo kinetic parameters in mouse after oral administration (plasma, LC/MS)
Conditions: for half-life: read-out: t½ (converted)
Description: 6-Week old ddY male mice were starved for 12 hours, and then used for the experiment. To the mice, Am80 (3.30 mg/kg), 3-[4-[(5,6,7,8-tetrahydro-5,5,8,8-tetramethyl-2-naphthalenyl)carbamoyl]phenyl]propionic acid (protium compound, M700, 3.56 mg/kg), or 3-[4-[(5,6,7,8-tetrahydro-5,5,8,8-tetramethyl-2-naphthalenyl)carbamoyl]phenyl]propionic acid-2,2,3,3-d4 (deuterated propionic acid derivative, Y616, 3.60 mg/kg) was orally administered (the dose in terms of molar amount was 9.4 μmol/kg for all the compounds). A 94 mM solution of each compound in DMSO was prepared, and suspended in 0.5% methylcellulose so as to be diluted 100 times, and the suspension was orally administered at a dose of 10 ml/kg by using a 1-ml syringe and a catheter for oral administration.
After 15 minutes, 30 minutes, 1 hour, 2 hours, 3 hours, 6 hours, 12 hours, and 24 hours from the administration of each compound, whole blood was collected from the mouse abdominal aorta under diethyl ether anesthesia by using a heparin-treated glass syringe and a 26G hypodermic needle (five mice were used for each compound). The collected blood was centrifuged at 13,700×g and 4° C. for 5 minutes to separate the plasma, and the separated plasma was stored at −30° C.
The plasma (100 μL) was put into a 1.5-ml tube, and added with ethyl acetate (400 μl), the mixture was stirred, ultrasonicated for 1 minute, and centrifuged at 13,700×g and 20° C. for 3 minutes, and the supernatant was collected. The residue was added with ethyl acetate (400 μl), and the mixture was subjected once again to the aforementioned procedure. The collected supernatant was put into a 1.5-ml tube in an appropriate volume, and dried with nitrogen gas. The residue was dissolved in methanol (100 μl) to obtain a sample for LC/MS.
All the samples were used for […] in a volume of 5 μl. The LC/MS apparatus used was constituted with Waters 2695 Separations Module (Nihon Waters) and 3100 Mass Detector (Nihon Waters). Each compound was quantified by the absolute calibration curve method.

[1] = Administration of M700, 3.56 mg/kg (9.4 μmol/kg) oral, ddY male mice, plasma, label = analyte measured
[2] = mouse, 3.3 mg/kg, Administration of AM80, 3.30 mg/kg (9.4 μmol/kg) oral, ddY male mice, plasma
[3] = mouse, 3.6 mg/kg, Administration of Y616, 3.60 mg/kg (9.4 μmol/kg) oral, ddY male mice, plasma, label = analyte measured
[4] = mouse, 3.6 mg/kg, Administration of Y616, 3.60 mg/kg (9.4 μmol/kg) oral, ddY male mice, plasma, label = analyte measured, read-out: AUC
[5] = mouse, 3.6 mg/kg, Administration of Y616, 3.60 mg/kg (9.4 μmol/kg) oral, ddY male mice, plasma, label = analyte measured, read-out: Tmax
[6] = mouse, Administration of M700, 3.56 mg/kg (9.4 μmol/kg) oral, ddY male mice, plasma, label = analyte measured
[7] = mouse, Administration of M700, 3.56 mg/kg (9.4 μmol/kg) oral, ddY male mice, plasma, label = analyte measured, read-out: AUC
[8] = mouse, Administration of M700, 3.56 mg/kg (9.4 μmol/kg) oral, ddY male mice, plasma, label = analyte measured, read-out: Tmax
[9] = oral, mouse, after administration of the labelled prodrug
[10] = oral, mouse, compared with the protium compound

| Cmax [3] [nM] | AUC [4] [µM·h] | Tmax [5] [min] | half-life [3] [min] | Cmax [6] [nM] | AUC [7] [µM·h] | Tmax [8] [min] | half-life [6] [min] | Compound | further results |
| --- | --- | --- | --- | --- | --- | --- | --- | --- | --- |
|  |  |  |  |  |  |  |  | 4-[(5,6,7,8-tetrahydro-5,5,8,8-tetramethyl-2-naphthalenyl)carbamoyl]phenylcinnamic acid [Example M700-M1] | AUC [1]: 0.54 µM·h; Cmax [1]: 710 nM; Tmax [1]: 30 min; t½ [1]: 28.2 min |
| 930 | 3.48 | 60 | 133 | 1060 | 2.74 | 60 | 73.2 | CC1(C)CCC(C)(C)c2cc(NC(=O)c3ccc(C(=O)O)cc3)ccc21 [Am80, 4-[(5,6,7,8-tetrahydro-5,5,8,8-tetramethyl-2-naphthalenyl)carbamoyl]benzoic acid] | Cmax [2]: 1870 nM; AUC (mouse, 3.3 mg/kg, Administration of AM80, 3.30 mg/kg (9.4 μmol/kg) oral, ddY male mice, plasma, read-out: AUC): 2.8 µM·h; Tmax (mouse, 3.3 mg/kg, Administration of AM80, 3.30 mg/kg (9.4 μmol/kg) oral, ddY male mice, plasma, read-out: Tmax): 30 min; half-life [2]: 48.6 min |
|  |  |  |  | 1620 | 1.32 | 30 | 28.2 | CC1(C)CCC(C)(C)c2cc(NC(=O)c3ccc(CCC(=O)O)cc3)ccc21 [Example M700, 3-[4-[(5,6,7,8-tetrahydro-5,5,8,8-tetramethyl-2-naphthalenyl)carbamoyl]phenyl]propionic acid] |  |
|  |  |  |  | 20 | 0.02 | 30 | 25.8 | CC1(C)CCC(C)(C)c2cc(NC(=O)c3ccc(C(O)CC(=O)O)cc3)ccc21 (centres unmarked) [Example M700-M2, 3-[4-[(5,6,7,8-tetrahydro-5,5,8,8-tetramethyl-2-naphthalenyl)carbamoyl]phenyl]-3-hydroxypropionic acid] |  |
| 1370 | 1.95 | 30 | 49.8 |  |  |  |  | [2H]C([2H])(C(=O)O)C([2H])([2H])c1ccc(C(=O)Nc2ccc3c(c2)C(C)(C)CCC3(C)C)cc1 [Example Y616, 3-[4-[(5,6,7,8-tetrahydro-5,5,8,8-tetramethyl-2-naphthalenyl)carbamoyl]phenyl]propionic acid-2,2,3,3-d4] | metabolic intermediate M1 generated [9]: markedly decreased; metabolic intermediate M2 generated [9]: not observed; AUC of the prodrug [10]: increased; half-life (t½) of the prodrug [10]: extended |
